In US20230312577A1, “DUAL KINASE-BROMODOMAIN INHIBITORS” (MONASH UNIVERSITY, priority 2020, published 2023):

What follows are compounds tested on OPM2 cells (assay: Cell proliferation assay (ViaLight, cellular ATP)). Conditions: Homo sapiens, OPM-2, 120 h, 5 days, 5 μM to 1 nM.
Assay type: cell-based
Experimental: OPM2 cells (1×10^3) were plated in a 96 well plate. Test compounds were added to cells at final concentrations ranging from 5 μM to 1 nM. They were incubated for 5 days before they were analysed using ViaLight luminescence-based proliferation assays which detect cellular ATP, as per the manufacturer's instructions. All samples were prepared in technical triplicates. Data analysis was performed in GraphPad Prism version 7.00 for Mac OS X, (GraphPad Software, San Diego California USA) in order to calculate the GI50.
`CC(=O)N1c2ccc(-c3ccc(CN(C)Cc4sc5c(N6CCOCC6)nc(-c6cnc(N)nc6)nc5c4C)cc3)cc2CC[C@@H]1C` [Cpd 043, (S)-1-(6-(4-((((2-(2-aminopyrimidin-5-yl)-7-methyl-4-morpholinothieno[3,2-d]pyrimidin-6-yl)methyl)(methyl)amino)methyl)phenyl)-2-methyl-3,4-dihydroquinolin-1(2H)-yl)ethan-1-one] showed a GI50 of over 500 nM.
For `CC(=O)N1c2ccc(-c3ccc(CN4CCN(Cc5cn6cc(-c7cnc(N)nc7)nc(N7CCOCC7)c6n5)CC4)cc3)cc2CC[C@@H]1C` [Cpd 015, (S)-1-(6-(4-((4-((6-(2-Aminopyrimidin-5-yl)-8-morpholinoimidazo[1,2-a]pyrazin-2-yl)methyl)piperazin-1-yl)methyl)phenyl)-2-methyl-3,4-dihydroquinolin-1(2H)-yl)ethan-1-one], the GI50 was 100 to 500 nM.
`CC(=O)N1c2ccc(-c3ccc(C(=O)NCc4cn5cc(-c6cnc(N)nc6)nc(N6CCOCC6)c5n4)cc3)cc2CC[C@@H]1C` [Cpd 016, (S)-4-(1-Acetyl-2-methyl-1,2,3,4-tetrahydroquinolin-6-yl)-N-((6-(2-aminopyrimidin-5-yl)-8-morpholinoimidazo[1,2-a]pyrazin-2-yl)methyl)benzamide] gave a GI50 of 100 to 500 nM.
`CC(=O)N1c2ccc(-c3ccc(CN(C)C(=O)c4cn5cc(-c6cnc(N)nc6)nc(N6CCOCC6)c5n4)cc3)cc2CC[C@@H]1C` [Cpd 037, (S)-N-(4-(1-acetyl-2-methyl-1,2,3,4-tetrahydroquinolin-6-yl)benzyl)-6-(2-aminopyrimidin-5-yl)-N-methyl-8-morpholinoimidazo[1,2-a]pyrazine-2-carboxamide] gave a GI50 of 100 to 500 nM.
Work on `CC(=O)N1c2ccc(-c3ccc(C(=O)NCCCNC(=O)c4cc5nc(-c6cnc(N)nc6)nc(N6CCOCC6)c5s4)cc3)cc2CC[C@@H]1C` [Cpd 040, (S)-N-(3-(4-(1-Acetyl-2-methyl-1,2,3,4-tetrahydroquinolin-6-yl)benzamido)propyl)-2-(2-aminopyrimidin-5-yl)-4-morpholinothieno[3,2-d]pyrimidine-6-carboxamide] yielded a GI50 of over 500 nM.
For `CC(=O)N1c2ccc(-c3ccc(CNC(=O)c4cn5cc(-c6cnc(N)nc6)nc(N6CCCCC6)c5n4)cc3)cc2CC[C@@H]1C` [Cpd 064, (S)-N-(4-(1-Acetyl-2-methyl-1,2,3,4-tetrahydroquinolin-6-yl)benzyl)-6-(2-aminopyrimidin-5-yl)-8-(piperidin-1-yl)imidazo[1,2-a]pyrazine-2-carboxamide], the GI50 was 100 to 500 nM.
With `CC(=O)N1c2ccc(-c3ccc(CNC(=O)Cc4cn5cc(-c6cnc(N)nc6)nc(N6CCOCC6)c5n4)cc3)cc2CC[C@@H]1C` [Cpd 024, (S)-N-(4-(1-acetyl-2-methyl-1,2,3,4-tetrahydroquinolin-6-yl)benzyl)-2-(6-(2-aminopyrimidin-5-yl)-8-morpholinoimidazo[1,2-a]pyrazin-2-yl)acetamide] the GI50 was over 500 nM.
`CC(=O)N1c2ccc(-c3ccc(CNC(=O)c4nc5c(N6CCOCC6)nc(-c6cnc(N)nc6)nc5n4C)cc3)cc2CC[C@@H]1C` [Cpd 071, (S)-N-(4-(1-Acetyl-2-methyl-1,2,3,4-tetrahydroquinolin-6-yl)benzyl)-2-(2-aminopyrimidin-5-yl)-9-methyl-6-morpholino-9H-purine-8-carboxamide] gave a GI50 of at most 100 nM.
In the case of `CC(=O)N1c2ccc(-c3ccc(CC(=O)NCc4cn5cc(-c6cnc(N)nc6)nc(N6CCOCC6)c5n4)cc3)cc2CC[C@@H]1C` [Cpd 018, (S)-2-(4-(1-Acetyl-2-methyl-1,2,3,4-tetrahydroquinolin-6-yl)phenyl)-N-((6-(2-aminopy-rimidin-5-yl)-8-morpholinoimidazo[1,2-a]pyrazin-2-yl)methyl)acetamide], the GI50 is reported as 100 to 500 nM.
Compound `CC(=O)N1c2ccc(-c3cccc(C(=O)NCc4cn5cc(-c6cnc(N)nc6)nc(N6CCOCC6)c5n4)c3)cc2CC[C@@H]1C` [Cpd 017, (S)-3-(1-Acetyl-2-methyl-1,2,3,4-tetrahydroquinolin-6-yl)-N-((6-(2-aminopyrimidin-5-yl)-8-morpholinoimidazo[1,2-a]pyrazin-2-yl)methyl)benzamide] has a GI50 of 100 to 500 nM.
`CC(=O)N1c2ccc(-c3ccc([C@@H](C)NC(=O)c4cn5cc(-c6cnc(N)nc6)nc(N6CCOCC6)c5n4)cc3)cc2CC[C@@H]1C` [Cpd 063, N-((R)-1-(4-((S)-1-Acetyl-2-methyl-1,2,3,4-tetrahydroquinolin-6-yl)phenyl)ethyl)-6-(2-aminopyrimidin-5-yl)-8-morpholinoimidazo[1,2-a]pyrazine-2-carboxamide] gave a GI50 of at most 100 nM.
`CC(=O)N1c2ccc(-c3ccc(C(=O)NCCNC(=O)c4cn5cc(-c6cnc(N)nc6)nc(N6CCOCC6)c5n4)cc3)cc2CC[C@@H]1C` [Cpd 012, (S)-N-(2-(4-(1-Acetyl-2-methyl-1,2,3,4-tetrahydroquinolin-6-yl)benzamido)ethyl)-6-(2-aminopyrimidin-5-yl)-8-morpholinoimidazo[1,2-a]pyrazine-2-carboxamide] showed a GI50 of at most 100 nM.
In the case of `CC(=O)N1c2ccc(-c3ccc(C(=O)N4CCN(Cc5cn6cc(-c7cnc(N)nc7)nc(N7CCOCC7)c6n5)CC4)cc3)cc2CC[C@@H]1C` [Cpd 014, (S)-1-(6-(4-(4-((6-(2-Aminopyrimidin-5-yl)-8-morpholinoimidazo[1,2-a]pyrazin-2-yl)methyl)piperazine-1-carbonyl)phenyl)-2-methyl-3,4-dihydroquinolin-1(2H)-yl)ethan-1-one], the GI50 is reported as 100 to 500 nM.
Compound `CC(=O)N1c2ccc(-c3ccc(CNC(=O)c4cc5nc(-c6cnc(N)nc6)cc(N6CCOCC6)n5n4)cc3)cc2CC[C@@H]1C` [Cpd 075, (S)-N-(4-(1-Acetyl-2-methyl-1,2,3,4-tetrahydroquinolin-6-yl)benzyl)-5-(2-aminopyrimidin-5-yl)-7-morpholinopyrazolo[1,5-a]pyrimidine-2-carboxamide] has a GI50 of at most 100 nM.
Compound `CC(=O)N1c2ccc(-c3cccc(NC(=O)CNC(=O)c4sc5c(N6CCOCC6)nc(-c6cnc(N)nc6)nc5c4C)c3)cc2CC[C@@H]1C` [Cpd 049, (S)-N-(2-((3-(1-acetyl-2-methyl-1,2,3,4-tetrahydroquinolin-6-yl)phenyl)amino)-2-oxoethyl)-2-(2-aminopyrimidin-5-yl)-7-methyl-4-morpholinothieno[3,2-d]pyrimidine-6-carboxamide] has a GI50 of 100 to 500 nM.
For `CC(=O)N1c2ccc(-c3ccc(CN(C)C(=O)c4cc5nc(-c6cnc(N)nc6)nc(N6CCOCC6)c5s4)cc3)cc2CC[C@@H]1C` [Cpd 038, (S)-N-(4-(1-acetyl-2-methyl-1,2,3,4-tetrahydroquinolin-6-yl)benzyl)-2-(2-aminopyrimidin-5-yl)-N-methyl-4-morpholinothieno[3,2-d]pyrimidine-6-carboxamide], the GI50 was over 500 nM.
`CC(=O)N1c2ccc(-c3ccc(C(C)(C)NC(=O)c4cn5cc(-c6cnc(N)nc6)nc(N6CCOCC6)c5n4)cc3)cc2CC[C@@H]1C` [Cpd 061, (S)-N-(2-(4-(1-Acetyl-2-methyl-1,2,3,4-tetrahydroquinolin-6-yl)phenyl)propan-2-yl)-6-(2-aminopyrimidin-5-yl)-8-morpholinoimidazo[1,2-a]pyrazine-2-carboxamide] showed a GI50 of 100 to 500 nM.
In the case of `CC(=O)N1c2ccc(-c3ccc(CCNC(=O)c4cn5cc(-c6cnc(N)nc6)nc(N6CCOCC6)c5n4)cc3)cc2CC[C@@H]1C` [Cpd 044, (S)-N-(4-(1-acetyl-2-methyl-1,2,3,4-tetrahydroquinolin-6-yl)phenethyl)-6-(2-aminopyrimidin-5-yl)-8-morpholinoimidazo[1,2-a]pyrazine-2-carboxamide], the GI50 is reported as 100 to 500 nM.
For `CC(=O)N1c2ccc(-c3cnn(C4CCN(C(=O)c5sc6c(N7CCOCC7)nc(-c7cnc(N)nc7)nc6c5C)CC4)c3)cc2CC[C@@H]1C` [Cpd 053, (S)-1-(6-(1-(1-(2-(2-aminopyrimidin-5-yl)-7-methyl-4-morpholinothieno[3,2-d]pyrimidine-6-carbonyl)piperidin-4-yl)-1H-pyrazol-4-yl)-2-methyl-3,4-dihydroquinolin-1(2H)-yl)ethan-1-one], the GI50 was at most 100 nM.
`COc1ccc(-c2cn3cc(C(=O)NCc4ccc(-c5ccc6c(c5)CC[C@H](C)N6C(C)=O)cc4)nc3c(N3CCOCC3)n2)cn1` [Cpd 058, (S)-N-(4-(1-Acetyl-2-methyl-1,2,3,4-tetrahydroquinolin-6-yl)benzyl)-6-(6-methoxypyridin-3-yl)-8-morpholinoimidazo[1,2-a]pyrazine-2-carboxamide] showed a GI50 of 100 to 500 nM.
With `CC(=O)N1c2ccc(-c3ccc(CN(C)Cc4cc5nc(-c6cnc(N)nc6)nc(N6CCOCC6)c5s4)cc3)cc2CC[C@@H]1C` [Cpd 042, (S)-1-(6-(4-((((2-(2-Aminopyrimidin-5-yl)-4-morpholinothieno[3,2-d]pyrimidin-6-yl)methyl)(methyl)amino)methyl)phenyl)-2-methyl-3,4-dihydroquinolin-1(2H)-yl)ethan-1-one] the GI50 was over 500 nM.
With `CC(=O)N1c2ccc(-c3ccc(CNC(=O)c4cc5c(N6CCOCC6)nc(-c6cnc(N)nc6)cn5c4)cc3)cc2CC[C@@H]1C` [Cpd 069, (S)-N-(4-(1-Acetyl-2-methyl-1,2,3,4-tetrahydroquinolin-6-yl)benzyl)-3-(2-aminopyrimidin-5-yl)-1-morpholinopyrrolo[1,2-a]pyrazine-7-carboxamide] the GI50 was at most 100 nM.
`CC(=O)N1c2ccc(-c3ccc(NC(=O)Cc4cn5cc(-c6cnc(N)nc6)nc(N6CCOCC6)c5n4)cc3)cc2CC[C@@H]1C` [Cpd 022, (S)-N-(4-(1-acetyl-2-methyl-1,2,3,4-tetrahydroquinolin-6-yl)phenyl)-2-(6-(2-aminopyrimidin-5-yl)-8-morpholinoimidazo[1,2-a]pyrazin-2-yl)acetamide] showed a GI50 of at most 100 nM.
Compound `CC(=O)N1c2ccc(-c3ccc(CNC(=O)c4cc5c(N6CCOCC6)nc(-c6cnc(N)nc6)cn5n4)cc3)cc2CC[C@@H]1C` [Cpd 067, (S)-N-(4-(1-Acetyl-2-methyl-1,2,3,4-tetrahydroquinolin-6-yl)benzyl)-6-(2-aminopyrimidin-5-yl)-4-morpholinopyrazolo[1,5-a]pyrazine-2-carboxamide] has a GI50 of at most 100 nM.
